Results on two substances are retold here after patent publication US11123304B2, “Nanoparticles having poly(ester amide) polymer cores as drug delivery vehicles” (The Brigham and Women's Hospital, Inc., priority 2017, dated 2021).

The subject of experiment [1] is blood glucose levels. Nature of the experiment: Hypoglycemic effect of oral insulin-loaded NPs in normal rats. It is filed as in vivo, Sprague Dawley rats. Conditions: subcutaneous injection. As for the experimental part: Sprague Dawley rats (n=6 per group) were fasted overnight before experiments, but allowed free access to water. The animals were administered Tf-coated NPs and BSA-coated NPs (PEA75) in PBS (1.5 mL per 100 g of body weight), at an insulin dose of 50 U/kg, by oral gavage. Tf-coated NPs were tested with four different formulations, including PEA50 NPs, PEA75 NPs, PLGA-PEA50 NPs, and PLGA-PEA75 NPs. As controls, saline and free insulin (50 U/kg) were administered by oral gavage. One group of animals was administered with insulin solution (2 U/kg) by subcutaneous (SC) injection, which was used for the calculation of relative pharmacological availability (PA %). The blood glucose levels were measured as described above, and the pharmacological availability for different formulations was calculated relative to the SC route. […] All four tested Tf-coated NPs elicited a significant hypoglycemic response, reducing glucose during the first 1-6 hours after administration as shown in Table 3.

Experiment [2] concerns blood glucose levels. Nature of the experiment: Hypoglycemic effect of oral insulin-loaded NPs in diabetic mice. Type of experiment: in vivo, BALB/c mice. Conditions: subcutaneous injection. The protocol:
For the evaluation of in vivo efficacy in diabetic animals, insulin-dependent (type 1) diabetes was induced in male BALB/c mice (Charles River Laboratories) by a single injection of streptozotocin solution ([…]) as previously described (see, e.g., 7. S. Arora, S. K. Ojha, D. Vohora, Global J. Pharmacol. 2009, 3, 81-84). Animals were considered to be diabetic if they had fasting glycemia higher than 16.0 mM one week after the injection. The diabetic mice (n=6 per group) were fasted overnight and then administered different samples by gavage, including saline, free insulin, Tf-coated NPs (PEA75), and BSA-coated NPs (PEA75) (insulin dose of 50 U/kg, 1.5 mL per 100 g of body weight). One group of animals was administered an insulin solution (5 U/kg) by subcutaneous (SC) injection. The blood glucose levels were measured as described above, and the pharmacological availability for different formulations was calculated relative to the SC route.

For experiment [3], the system named is blood glucose levels. Description: Bioactivity of insulin released from NPs, subcutaneous injection. It is filed as in vivo, Sprague Dawley rats. Conditions: 2 U/kg subcutaneous, insulin released in PBS 2 hours at 37° C. The protocol: To study the bioactivity of insulin after the preparation and drug release process, NPs were allowed to release insulin in PBS for 2 hours at 37° C. Then the NPs were isolated from the released insulin by ultra-centrifugation. Sprague Dawley rats (Dashuo Laboratory Animal Center) (n=4 per group) were fasted overnight, and then administered the released insulin (2 U/kg) or original free insulin (2 U/kg) and saline, by subcutaneous injection. Blood glucose levels were measured with the AlphaTRAK blood glucose monitoring system (Abbott).

Take insulin [Free Insulin]: the “AAC (area above the serum glucose concentration curve)” value came to 92.8 %*h in the experiment with blood glucose levels [1] (2 U/kg) and 227.5 %*h in the experiment with blood glucose levels [2] (5 U/kg). For the same substance, the figures for the Tmax with blood glucose levels [1] (2 U/kg) and in the experiment on blood glucose levels [2] (5 U/kg) were 30 min and 60 min, respectively. Further, the “PA (relative pharmacological availability)” value in the experiment with blood glucose levels [1] (2 U/kg (reference route)) and in the experiment on blood glucose levels [2] (5 U/kg (reference route)) was 100.0% in each case.
In the case of “released insulin: insulin released from the NPs in PBS for 2 hours at 37° C. and separated by ultra-centrifugation”, the “Hypoglycemic response of released insulin” value with blood glucose levels [3] is “hypoglycemic response analogous to an equivalent dose of free insulin solution”.
